“And” between values parts separate entries of the source, which are not always exact repeats. Equal entries are not always repeated. Positions of bridges follow the written chain, without caps; N, C: chain ends. Residues, ends and D or L forms follow the SMILES beside them.
How the values were obtained:
[1] = molecular target: T1, NPR-A signaling in HeLa cells (Homo sapiens, UniProt P16066); assay: cGMP AlphaScreen assay in HeLa cells (Examples 14, 15); type: cell-based; conditions: 30 minutes at 37° C.
T1 construct: Cyclic GMP (cGMP) elevation in HeLa cells in response to Natriuretic Peptide stimulation; endogenous in cells; host or cells: HeLa cells
T1 sequence (P16066 33-1061): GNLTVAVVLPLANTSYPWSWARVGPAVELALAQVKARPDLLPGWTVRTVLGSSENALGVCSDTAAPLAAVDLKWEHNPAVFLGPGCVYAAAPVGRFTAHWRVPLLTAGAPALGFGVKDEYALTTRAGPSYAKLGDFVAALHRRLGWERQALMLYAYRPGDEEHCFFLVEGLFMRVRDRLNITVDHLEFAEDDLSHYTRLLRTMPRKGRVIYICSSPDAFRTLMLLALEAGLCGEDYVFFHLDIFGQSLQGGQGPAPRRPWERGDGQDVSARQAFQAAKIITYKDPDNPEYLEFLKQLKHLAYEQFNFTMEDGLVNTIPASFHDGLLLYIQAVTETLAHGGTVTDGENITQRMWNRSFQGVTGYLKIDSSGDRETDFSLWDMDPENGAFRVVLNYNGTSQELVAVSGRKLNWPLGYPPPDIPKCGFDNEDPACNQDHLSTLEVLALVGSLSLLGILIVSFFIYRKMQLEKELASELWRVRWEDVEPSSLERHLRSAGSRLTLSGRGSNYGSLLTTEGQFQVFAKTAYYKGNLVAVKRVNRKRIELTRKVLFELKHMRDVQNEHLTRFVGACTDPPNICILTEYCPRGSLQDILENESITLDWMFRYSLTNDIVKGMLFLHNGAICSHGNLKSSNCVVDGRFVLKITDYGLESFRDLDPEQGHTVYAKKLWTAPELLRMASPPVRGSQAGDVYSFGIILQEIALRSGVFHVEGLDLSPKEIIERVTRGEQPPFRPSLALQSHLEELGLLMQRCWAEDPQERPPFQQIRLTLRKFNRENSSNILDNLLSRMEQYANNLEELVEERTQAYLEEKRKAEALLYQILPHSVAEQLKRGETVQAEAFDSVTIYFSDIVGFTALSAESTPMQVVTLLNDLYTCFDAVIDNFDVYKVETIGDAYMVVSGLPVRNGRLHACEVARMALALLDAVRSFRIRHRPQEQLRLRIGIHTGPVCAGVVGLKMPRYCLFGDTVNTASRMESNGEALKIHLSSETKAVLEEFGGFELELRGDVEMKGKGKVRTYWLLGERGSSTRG
Description: HeLa cells were maintained in RPMI cell culture medium (Gihco Invitrogen, Mt Waverley, Australia) supplemented with 10% Foetal Bovine Serum (Cambrex Bio Science, Rockland, USA). Upon reaching confluence, cells were sub-cultured such that they would be 70-90% confluent at time of assay.
Cyclic GMP (cGMP) elevation in HeLa cells in response to Natriuretic Peptide stimulation was performed using a cGMP AlphaScreen kit (PerkinElmer, Boston, USA), as follows for normal experiments: Cells were detached, pelleted to remove growth medium, and resuspended in Stimulation Buffer (Hank's Balanced Salt Solution, 0.1% Bovine Serum Albumin [BSA] (Sigma-Aldrich, Castle Hill, Australia), 1 mM 3-Isobutyl-1-methylxanthine [IBMX] (Sigma-Aldrich, Castle Hill, Australia)) and diluted to 6×10^6 cells per mL (30 000 cells per 5 μL). 5 μL of cells were added to wells of white 384-well OptiPlates (PerkinElmer, Boston, USA), and stimulated with increasing concentrations of peptide for 30 minutes at 37° C. Cells were then lysed with 10 μL Lysis buffer (dH2O, 0.3% Tween-20 (Sigma-Aldrich, Castle Hill, Australia), 5 mM HEPES (JRH Biosciences, Kansas, USA) and 0.1% BSA) and 5 μL acceptor bead mix (10 μL per mL acceptor beads and 1/3000 anti-cGMP antibody (BioVision, Mountain View, USA) in lysis buffer) added per well in the dark. Plates were incubated in the dark at room temperature for 30 minutes, then 5 μL donor bead mix (10 μL per ML donor beads and 0.3 nM biotinylated cGMP in lysis buffer) was added per well in the dark and the plate incubated overnight at room temperature. Signal was read using an EnVision plate reader (PerkinElmer, Boston, USA) and data analysed using Prism software. The cGMP standard curve was performed as per manufacturer's instructions.
To examine whether TNPc and synthetic analogs produced in the inventors' laboratory could stimulate NPR-A signaling, cGMP elevations in HeLa cells in response to these peptides were measured, as described above.

[2] = tested on: denuded aortic rings, GC A receptor; assay: Relaxation of noradrenaline constricted endothelium-denuded aortic rings (Example 11); design: species or system rat; conditions: GC-A mediated
Method in brief: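 Endothelium-denuded thoracic aortic rings (5 mm) from male Sprague Dawley rats were held at 10 g tension in carbogenated physiological salt solution at 37 °C. Denudation was confirmed by under 10% ACh (10 μM) relaxation after phenylephrine (0.3 μM). Rings constricted with noradrenaline, scaled to 40 mM KCl contraction, were relaxed with increasing peptide doses, with at least 3 rings per peptide.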

[3] = −Log10EC50 (pEC50) ± Standard Error, cGMP accumulation in HeLa cells

Row | Structure (SMILES) | EC50 ([1]; EC50, cGMP accumulation in HeLa cells) [nM] | EC50 [1, 3] [nM] | Mean relaxation SEM of denuded aortic rings expressed as % of KCl response [2]
1 | CC[C@H](C)[C@@H]1NC(=O)[C@H](CCCCN)NC(=O)[C@H](Cc2c[nH]cn2)NC(=O)CNC(=O)[C@H](Cc2ccccc2)NC(=O)[C@@H](NC(=O)[C@@H]2CCCN2C(=O)[C@H](CC(=O)O)NC(=O)[C@H](Cc2ccc(O)cc2)NC(=O)[C@H](CCCCN)NC(=O)[C@@H](NC(=O)[C@@H](N)CCC(=O)O)C(C)C)CSSC[C@@H](C(=O)N2CCC[C@H]2C(=O)N[C@@H](CO)C(=O)N[C@@H](CC(C)C)C(=O)N[C@@H](CCCNC(=N)N)C(=O)N[C@@H](CC(=O)O)C(=O)N2CCC[C@H]2C(=O)N[C@@H](CCCNC(=N)N)C(=O)N2CCC[C@H]2C(=O)N[C@@H](CC(N)=O)C(=O)N[C@@H](C)C(=O)N2CCC[C@H]2C(=O)N[C@@H](CO)C(=O)N[C@H](C(=O)N[C@@H](CO)C(=O)N[C@@H](C)C(=O)O)[C@@H](C)O)NC(=O)CNC(=O)[C@H](CC(C)C)NC(=O)[C@H](CC(N)=O)NC(=O)[C@H](CO)NC(=O)[C@H](C(C)C)NC(=O)[C@H](Cc2c[nH]cn2)NC(=O)[C@H](CC(N)=O)NC(=O)[C@H]([C@@H](C)CC)NC(=O)[C@H](CCCNC(=N)N)NC(=O)[C@H](CC(=O)O)NC1=O [DNP, reference compound] (H-EVKYDPCFGHKIDRINHVSNLGCPSLRDPRPNAPSTSA-OH; disulfide 7-23; N-terminus and C-terminus assumed) | 0.392 | 0.382 | –
2 | CC[C@H](C)[C@H](NC(=O)[C@H](CCCCN)NC(=O)[C@H](CO)NC(=O)[C@H](CC(=O)O)NC(=O)[C@@H](N)CO)C(=O)NCC(=O)N[C@@H](CC(N)=O)C(=O)NCC(=O)N[C@H]1CSSC[C@@H](C(=O)N[C@@H](CC(N)=O)C(=O)N[C@@H](CCCNC(=N)N)C(=O)N[C@H](C(=O)N[C@@H](CCSC)C(=O)N[C@@H](CCC(N)=O)C(=O)N[C@@H](CC(N)=O)C(=O)N2CCC[C@H]2C(=O)N2CCC[C@H]2C(=O)N[C@@H](CCCCN)C(=O)N[C@@H](CCCCN)C(=O)N[C@@H](Cc2ccccc2)C(=O)N[C@@H](CO)C(=O)NCC(=O)N[C@@H](CCC(=O)O)C(=O)O)[C@@H](C)CC)NC(=O)CNC(=O)[C@H](CC(C)C)NC(=O)CNC(=O)[C@H](CO)NC(=O)[C@H](C(C)C)NC(=O)[C@H](CO)NC(=O)CNC(=O)[C@H]([C@@H](C)CC)NC(=O)[C@H](CCCNC(=N)N)NC(=O)[C@H](CC(=O)O)NC(=O)[C@H](CC(C)C)NC(=O)[C@@H]2CCCN2C(=O)[C@H](Cc2ccccc2)NC(=O)CNC(=O)[C@H](Cc2ccccc2)NC1=O [TNPc] (H-SDSKIGNGCFGFPLDRIGSVSGLGCNRIMQNPPKKFSGE-OH; disulfide 9-25) | – | 124000 | 55.0 ± 10.7%
3 | CC[C@H](C)[C@@H]1NC(=O)[C@H](CCCNC(=N)N)NC(=O)[C@H](CC(=O)O)NC(=O)[C@H](CCSC)NC(=O)[C@H](CCCNC(=N)N)NC(=O)CNC(=O)CNC(=O)[C@H](Cc2ccccc2)NC(=O)[C@@H](NC(=O)[C@H](CO)NC(=O)[C@H](CO)NC(=O)[C@H](CCCNC(=N)N)NC(=O)[C@H](CCCNC(=N)N)NC(=O)[C@H](CC(C)C)NC(=O)[C@@H](N)CO)CSSC[C@@H](C(=O)N[C@@H](CC(N)=O)C(=O)N[C@@H](CO)C(=O)N[C@@H](Cc2ccccc2)C(=O)N[C@@H](CCCNC(=N)N)C(=O)N[C@@H](Cc2ccc(O)cc2)C(=O)O)NC(=O)CNC(=O)[C@H](CC(C)C)NC(=O)CNC(=O)[C@H](CO)NC(=O)[C@H](CCC(N)=O)NC(=O)[C@H](C)NC(=O)CNC1=O [hANP, reference compound] | – | – | 66% and 66.5 ± 2.3%
